Experimental data reported in US20130298921A1, “INHALER FOR SMOKING CESSATION” (Rock Creek Pharmaceuticals, Inc., priority 2011, published 2013).
Where two headings read alike, the source gives them in different places.

Columns and labels:
[1] = system: rodents trained to self-administer nicotine; test: reward in rodents trained to self-administer nicotine; format: in vivo
[2] = system: nicotine self-administration by rats; settings: anatabine 1.8-5.6 mg/kg, Caine et al., 2013, cited from earlier work
α4/β2 nAChR channel = biological target: T1, α4/β2 nAChR channel (Homo sapiens, UniProt P17787+P43681); test: Fluo-8 calcium FLIPR assay, cloned nAChR channels in mammalian cells; format: cell-based
T1 construct: expressed in transfected cells

[3] = system: nicotine self-administration by rats; test: nicotine self-administration by rats; format: in vivo; settings: anatabine 1.8 and 3.2 mg/kg IP; peak reinforcing nicotine doses 0.003 and 0.01 mg/kg/inj; P<0.05-0.001; FIG. 6
α3/β4 nAChR channel = biological target: T2, α3/β4 nAChR channel (Homo sapiens, UniProt P30926+P32297); test: Fluo-8 calcium FLIPR assay, cloned nAChR channels in mammalian cells; format: cell-based
T2 construct: expressed in transfected cells

[4] = system: precipitated nicotine withdrawal; test: precipitated nicotine withdrawal; format: in vivo, rodents; settings: anatabine administration
[5] = system: nicotine self-administration in rhesus monkeys; test: nicotine self-administration in nonhuman primate model (second-order schedule, nicotine- and food-maintained responding); format: in vivo, rhesus monkeys (Macaca Mulatta); settings: for food-maintained responding (change with increasing anatabine doses): anatabine 0.18-3.2 mg/kg IM; for nicotine self-administration: single doses of anatabine 0.18-3.2 mg/kg IM, nicotine training dose 0.01 mg/kg/inj (base)
Excerpt: Food was available during three 1-hour sessions each day (7 AM, 3 PM and 7 PM).
Food pellets were limited to 25 per session or 100 per day.
Nicotine doses are expressed as the base.

α7 nAChR channel = biological target: T3, α7 nAChR channel (Homo sapiens, UniProt P36544); test: Fluo-8 calcium FLIPR assay, cloned nAChR channels in mammalian cells; format: cell-based; settings: for agonist character / maximum level of activation: agonist assay
T3 construct: expressed in transfected cells

[6] = system: Hippocampus (rat hippocampal homogenates); test: binding relative to nicotine in rat hippocampal homogenates; settings: reference set to 1.0
Excerpt: (§1) This example describes a study conducted on anatabine along with other common nicotinic alkaloids in rat frontal and hippocampal homogenates.

[7] = system: Frontal cortex (rat frontal homogenates); test: binding relative to nicotine in rat frontal homogenates; settings: reference set to 1.0
Excerpt: as §1

[8] = antagonist and positive allosteric modulator modes

T3 sequence (P36544 23-502): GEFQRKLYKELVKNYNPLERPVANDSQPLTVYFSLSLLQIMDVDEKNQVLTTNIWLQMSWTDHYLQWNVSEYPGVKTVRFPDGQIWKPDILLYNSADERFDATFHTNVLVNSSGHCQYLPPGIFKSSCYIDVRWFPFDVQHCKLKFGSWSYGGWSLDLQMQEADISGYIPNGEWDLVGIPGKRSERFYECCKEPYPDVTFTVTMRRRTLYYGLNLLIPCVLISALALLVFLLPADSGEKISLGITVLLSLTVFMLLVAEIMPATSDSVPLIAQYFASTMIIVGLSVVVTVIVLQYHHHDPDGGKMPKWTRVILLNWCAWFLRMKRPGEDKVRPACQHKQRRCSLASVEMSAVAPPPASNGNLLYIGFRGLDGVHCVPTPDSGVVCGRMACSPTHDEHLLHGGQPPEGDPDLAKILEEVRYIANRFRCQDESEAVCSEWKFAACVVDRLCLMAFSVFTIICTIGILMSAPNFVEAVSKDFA
T2 sequence (P32297 32-505): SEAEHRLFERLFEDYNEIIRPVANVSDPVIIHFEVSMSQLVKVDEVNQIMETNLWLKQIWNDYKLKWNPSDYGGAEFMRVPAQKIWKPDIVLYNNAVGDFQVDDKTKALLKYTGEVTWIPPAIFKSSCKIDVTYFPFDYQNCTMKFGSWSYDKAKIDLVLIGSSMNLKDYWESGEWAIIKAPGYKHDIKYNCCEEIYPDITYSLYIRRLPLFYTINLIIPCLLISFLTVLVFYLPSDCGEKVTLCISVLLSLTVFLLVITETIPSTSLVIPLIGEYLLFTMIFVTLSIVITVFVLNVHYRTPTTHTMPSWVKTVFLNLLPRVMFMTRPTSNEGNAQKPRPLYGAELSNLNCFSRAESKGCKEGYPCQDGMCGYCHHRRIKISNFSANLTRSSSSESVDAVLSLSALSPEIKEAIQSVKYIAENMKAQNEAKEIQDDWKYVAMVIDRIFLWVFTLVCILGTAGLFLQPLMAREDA
T2 sequence (P30926 22-498): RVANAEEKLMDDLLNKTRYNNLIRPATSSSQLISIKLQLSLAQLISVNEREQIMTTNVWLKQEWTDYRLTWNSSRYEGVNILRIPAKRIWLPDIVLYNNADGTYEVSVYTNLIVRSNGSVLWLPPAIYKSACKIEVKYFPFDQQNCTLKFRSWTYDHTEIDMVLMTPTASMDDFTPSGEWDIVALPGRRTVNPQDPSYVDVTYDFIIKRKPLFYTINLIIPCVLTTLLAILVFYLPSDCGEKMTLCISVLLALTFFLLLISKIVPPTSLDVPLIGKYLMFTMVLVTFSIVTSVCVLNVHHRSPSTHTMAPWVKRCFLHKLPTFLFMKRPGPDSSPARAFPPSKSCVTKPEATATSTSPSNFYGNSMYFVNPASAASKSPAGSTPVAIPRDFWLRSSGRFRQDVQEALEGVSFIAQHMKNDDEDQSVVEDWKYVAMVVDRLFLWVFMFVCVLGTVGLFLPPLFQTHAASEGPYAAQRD
T1 sequence (P43681 29-627 limits assumed): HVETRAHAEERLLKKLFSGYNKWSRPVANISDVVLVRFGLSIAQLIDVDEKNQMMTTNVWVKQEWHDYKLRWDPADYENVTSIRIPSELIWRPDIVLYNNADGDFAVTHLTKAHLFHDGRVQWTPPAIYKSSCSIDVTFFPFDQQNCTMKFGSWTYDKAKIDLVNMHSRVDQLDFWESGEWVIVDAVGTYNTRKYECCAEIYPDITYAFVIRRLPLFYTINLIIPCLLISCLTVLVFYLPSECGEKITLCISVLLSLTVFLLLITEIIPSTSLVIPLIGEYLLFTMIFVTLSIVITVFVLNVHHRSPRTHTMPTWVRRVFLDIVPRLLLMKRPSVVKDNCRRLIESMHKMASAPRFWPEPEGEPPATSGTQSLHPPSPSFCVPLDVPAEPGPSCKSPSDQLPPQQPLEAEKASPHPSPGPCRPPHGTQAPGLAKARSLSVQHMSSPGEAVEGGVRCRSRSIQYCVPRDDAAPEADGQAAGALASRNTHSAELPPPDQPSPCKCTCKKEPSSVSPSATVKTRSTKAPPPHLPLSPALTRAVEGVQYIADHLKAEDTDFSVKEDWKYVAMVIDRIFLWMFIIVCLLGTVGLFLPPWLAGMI
T1 sequence (P17787 26-502): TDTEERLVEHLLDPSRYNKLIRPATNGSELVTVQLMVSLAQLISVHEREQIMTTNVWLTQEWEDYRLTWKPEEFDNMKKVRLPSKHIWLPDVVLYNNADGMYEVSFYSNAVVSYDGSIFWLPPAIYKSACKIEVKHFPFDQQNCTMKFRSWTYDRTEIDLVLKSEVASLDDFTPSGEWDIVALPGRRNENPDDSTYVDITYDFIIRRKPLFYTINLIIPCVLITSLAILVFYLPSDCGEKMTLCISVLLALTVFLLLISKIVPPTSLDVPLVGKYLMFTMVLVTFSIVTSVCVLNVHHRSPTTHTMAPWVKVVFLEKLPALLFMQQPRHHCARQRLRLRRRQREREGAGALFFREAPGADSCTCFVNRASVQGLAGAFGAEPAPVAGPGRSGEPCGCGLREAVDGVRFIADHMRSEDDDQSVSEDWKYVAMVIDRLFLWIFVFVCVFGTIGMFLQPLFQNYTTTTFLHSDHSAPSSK

C1=CCC(c2cccnc2)NC1 (racemic) [Anatabine, anatabine]
rewarding effect [1]: do not find anatabine to be rewarding
effect on nicotine dose-effect curve [2]: flattened the nicotine dose-effect curve
nicotine-maintained responding ([2]; nicotine 0.003 and 0.01 mg/kg/inj): significantly reduced
agonist character (α4/β2 nAChR channel; agonist assay): full agonist
antagonist or PAM effects (α4/β2 nAChR channel; [8]): no antagonist or PAM effects
nicotine-maintained responding [3]: significantly reduced
EC50 (α3/β4 nAChR channel; agonist assay): 14.6 µM
agonist character (α3/β4 nAChR channel; agonist assay): partial agonist
antagonist or PAM effects (α3/β4 nAChR channel; [8]): no antagonist or PAM effects
reversal of precipitated nicotine withdrawal [4]: does not reverse precipitated nicotine withdrawal
effect on nicotine dose-effect curve ([5]; anatabine 0.32 mg/kg, data for two monkeys): shifts the peak of the dose-effect curve to the right
effect on nicotine dose-effect curve ([5]; anatabine 1.0 mg/kg): flattened the dose-effect curve
food-maintained responding (change with increasing anatabine doses) [5]: no significant effects
food-maintained responding (change with increasing anatabine doses) ([5]; listed as anatabine): not statistically significant
decreases in nicotine-maintained responding versus baseline ([5]; anatabine doses of 1.8 and 3.2 mg/kg IM, P<0.005-0.02): significantly different from baseline
systematic behavioral assessments (sedation or agitation) ([5]; following each treatment session): no evidence of sedation or agitation
nicotine self-administration [5]: dose-dependently reduced
nicotine self-administration ([5]; listed as anatabine): dose-dependently decreased
agonist character (α7 nAChR channel): full, potent agonists
maximum level of activation (α7 nAChR channel): also similar (and similar to ACh)
antagonist or PAM effects (α7 nAChR channel; [8]): no antagonist or PAM effects

CN1CCCC1c1cccnc1 (single isomer, unassigned) [Nicotine, nicotine, reference compound]
Nicotine Binding Constant [6]: 1.0
agonist character (α3/β4 nAChR channel; agonist assay): full agonist
maximal response of the channel compared with ACh (α3/β4 nAChR channel; agonist assay): approached that of ACh
food-maintained responding with increasing doses of nicotine ([5]; nicotine 0.001-0.1 mg/kg/inj): did not change
peak of the nicotine dose-effect curve ([5]; nicotine 0.001-0.1 mg/kg/inj, 7 monkeys): 0.0032 mg/kg/inj
agonist character (α7 nAChR channel): full, potent agonists
maximum level of activation (α7 nAChR channel): also similar (and similar to ACh)
Nicotine Binding Constant [7]: 1.0
